Assay results reported in article PMC7851594 (Genome Biology and Evolution, 2020).

Tests used:
drT2R3a [1] = biological target: T1, drT2R3a (Danio rerio, UniProt Q2AB30); type: cell-based
T1 sequence (Q2AB30 1-313): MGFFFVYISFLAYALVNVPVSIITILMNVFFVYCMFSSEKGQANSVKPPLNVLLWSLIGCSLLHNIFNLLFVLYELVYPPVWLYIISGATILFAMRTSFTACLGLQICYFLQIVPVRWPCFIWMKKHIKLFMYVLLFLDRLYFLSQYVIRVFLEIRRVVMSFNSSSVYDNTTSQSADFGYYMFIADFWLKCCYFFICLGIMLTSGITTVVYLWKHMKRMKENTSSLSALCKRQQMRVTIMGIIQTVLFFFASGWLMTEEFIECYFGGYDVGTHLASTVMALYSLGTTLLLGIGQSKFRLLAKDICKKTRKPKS

drT2R3a [2] = biological target: T1, drT2R3a; type: cell-based; remark: listed apart in the source

## CC[N+](CC)(CC(=O)Nc1c(C)cccc1C)Cc1ccccc1 [DB, Denatonium benzoate]
drT2R3a [1]
  EC50: 230 ± 20 µM

## O=C1NS(=O)(=O)c2ccccc21 [saccharin]
drT2R3a [2]
  IC50: 920 ± 280 µM
